System: murine squamous cell carcinoma (SCC VII)
Test: Antitumor effect (tumor size) in both-side side-abdomen implanted SCC VII tumor-bearing mice
Assay type: in vivo, C3H/He Slc mice
Details: for antitumor effect (tumor size), tumor with administration of the drug (treated group): FIG. 1A, intratumoral administration on Day 0, 3, 6, compared to MOCK (saline solution), C-REV 1×10^6 pfu/100 μl, cGAMP 20 μg/100 μl; for antitumor effect (tumor size), tumor spaced apart from the tumor with administration of the drug (non-treated group): FIG. 1B / FIG. 2, tumor on opposite side of the abdomen received saline solution only, drug given to the other tumor on Day 0, 3, 6
Description: Six-week-old female C3H/He Slc mice (purchased from Chubu Kagaku Shizai Co., Ltd.) were used as mice. A tumor of murine squamous cell carcinoma (SCC VII; given by professor Shin-ichiro Masunaga, Kyoto University Institute for Integrated Radiation and Nuclear Science) was cut into 2 mmcubes, and two of the cubes were implanted under the skin on both sides of the abdomen of the mice by a tumor implantation needle (both-side side-abdomen implanted model). When the size of the tumor reached the size of 100 mm^3, grouping was performed. Although differing among the mice, one tumor end and the other tumor end were spaced apart from each other by about 10 mm.
First medicine: C-REV was suspended in a saline solution to obtain a concentration of 1×10^6 pfu/100 μl.
Second medicine: 2′3′-cGAMP (No. tlrl-nacga23 by Invivogen) was dissolved and suspended in a saline solution to obtain a concentration of 20 μg/100 μl.
Day 0: The first medicine of 100 μl was administered to a tumor (treated group) on one side of the abdomen. Further, a saline solution of 100 μl was administered to a tumor (non-treated group) on the other side of the abdomen. Day 3: The second medicine of 100 μl was administered to a tumor (treated group) on one side of the abdomen. Further, a saline solution of 100 μl was administered to a tumor (non-treated group) on the other side of the abdomen. Day 6: The second medicine of 100 μl was administered to a tumor (treated group) on one side of the abdomen. Further, a saline solution of 100 μl was administered to a tumor (non-treated group) on the other side of the abdomen.
The tumor size was calculated from multiplication of the longer diameter by the shorter diameter by the shorter diameter by 1/2 of a tumor.
(§1) The experiment was performed in the same procedure as for Example 1 except for administration of a saline solution of 100 μl on Day 3 and Day 6 instead of the administration of the second medicine to the treated group.
as §1, with “Example 1 except for administration of the second medicine on Day 0 instead of the administration of the first medicine to the treated group and except for” for “Example 1 except for”
as §1, with “Example 1 except for administration of a saline solution of 100 μl on Day 0 instead of the administration of the first medicine to the treated group and except for” for “Example 1 except for”
The experiment was performed in the same procedure as for Example 1 except for use of the hrR3 instead of the C-REV as the first medicine. […]

Compound | antitumor effect (tumor size), tumor with administration of the drug (treated group) | antitumor effect (tumor size), tumor spaced apart from the tumor with administration of the drug (non-treated group)
Nc1nc2c(ncn2[C@@H]2O[C@@H]3COP(=O)(O)O[C@H]4[C@@H](O)[C@H](n5cnc6c(N)ncnc65)O[C@@H]4COP(=O)(O)O[C@@H]2[C@@H]3O)c(=O)[nH]1 [cGAMP, 2′3′-cyclic GMP-AMP] | an antitumor effect was developed | almost no antitumor effect
Canerpaturev [C-REV] | an antitumor effect was developed | almost no antitumor effect

Reference: patent US20220273739A1, “COMBINATION DRUG FOR TREATING MALIGNANT TUMOR, PHARMACEUTICAL COMPOSITION FOR TREATING MALIGNANT TUMOR, AND PHARMACEUTICAL COMPOSITION FOR MALIGNANT TUMOR TREATMENT” (priority 2019, published 2022)
